Experiments:
Assay type in all cases: cell-based, human
[1] = system: mda-6 (WAF1/CIP1/SDI1); assay: Induction of mda-6 (WAF1/CIP1/SDI1) expression in HL-60 cells (Northern blotting, RT-PCR); details: TPA 3 nM, Vit D3 400 nM, RA 1 μM, DMSO 1%
Protocol: HL-60 cells were originally provided by Dr. R. C. Gallo (National Cancer Institute, Bethesda, Md.) (Collins et al., 1978; Huberman & Callaham, 1979). HL-60 cells designated HL-525 were derived by cloning HL-60 cells after subculturing 102 times in the presence of increasing concentrations (up to 3 μM) of TPA at 5- to 8-day intervals (Homma et al., 1986; Mitchell et al., 1986). […] Prior to the experiments described in this study, the HL-525 cells were subcultured more than 20 times in the absence of TPA. Cells were grown in 100-mm tissue culture dishes in RPMI 1640 medium supplemented with 20% fetal bovine serum, penicillin (100 units/ml) and streptomycin (100 μg/ml) (Grand Island Biological Co., NY) at 37° C. in an atmosphere of 5% CO2 in air in a humidified incubator. The 1,25-(OH)2D3(Vit D3) and TPA were dissolved in a final concentration of 0.01% DMSO, and all-trans retinoic acid (RA) was dissolved in 0.1% DMSO in culture medium. […]
RNA was purified by centrifugation through a CsC1 cushion as described by Chirgwin et al. (1979). […] Following hybridization, the filters were washed and exposed for autoradiography (Reddy et al., 1991; Su et al., 1991; Jiang et al., 1992). mda-6 and GAPDH gene expression were also determined by reverse transcription-polymerase chain reaction (RT-PCR) as described (Adollahi et al. 1991; Lin et al., 1994). […]

[2] = system: HL-525 cells; assay: Cell growth (cell counts); details: 6 d, 3 nM TPA, 1 μM RA, 400 nM Vit D3
Protocol: Cell counts were determined by hemocytometer chamber counting. Immunofluorescence tests for reactivity with the OKM1 antibody (Ortho Pharmaceutical Corp., Raritan, N.J.) were performed as previously described (Murao et al., 1983).

[3] = system: wild-type p53 protein; assay: Immunoprecipitation of p53 in H0-1 cells; details: IFN-β 2000 units/ml, MEZ 10 ng/ml
Protocol: Immunoprecipitation analyses were performed as described previously (Duigou et al., 1991; Su et al., 1993; Jiang et al., 1994b). […] Cultures were starved of methionine for 1 h at 37° C. in methionine-free medium, cells were concentrated by pelleting and labeled for 1 h (p53) or 4 h (p21 and Actin) at 37° in 1 ml of the same medium with 100 μCi of [^35S] (NEN; Express ^35S). After labeling, the cells were washed twice with ice-cold phosphate-buffered saline and lysed for 1 h on ice by the addition of RIPC (20 mM Tris-base, pH 7.5, 500 mM NaCl, 0.05% Nonidet P-40, 100 μg/ml phenylmethylsulfonyl fluoride and 0.02% sodium azide). The lysate was clarified by centrifugation in an Eppendorf microfuge at 10,000×g for 10 min at 4° C. H0-1 samples containing 4×10^6 counts were incubated with 2 μg of p53 monoclonal antibody (Ab1; PAb421) (Oncogene Sciences), WAF1/CIP1 (C-19) (Santa Cruz Biotechnology) (or MDA-6 peptide-derived) rabbit polyclonal IgG or actin monoclonal antibody (Oncogene Sciences) with rocking at 4° C. for 24 h. Labeled cell lysates were also prepared from F0-1, L0-1, SH-1, WM239, FM516-SV, SW480, MeWo, human skin fibroblasts and Saos-2 cells. Samples containing 4×10^6 counts were incubated with 2 μg of the p53 monoclonal antibody Ab1 (PAb421) or Ab3 (PAb240) (Oncogene Sciences). […]

With `CCCCCCCCCCCCCC(=O)O[C@@H]1[C@@H](C)[C@@]2(O)[C@@H](C=C(CO)C[C@]3(O)C(=O)C(C)=C[C@@H]23)[C@@H]2C(C)(C)[C@]12OC(C)=O` [TPA, 12-O-tetradecanoyl-phorbol-13-acetate] the “time of treatment at which mda-6 expression is induced” value [1] was ≤ 2 h.
For `CC1=C(/C=C/C(C)=C/C=C/C(C)=C/C(=O)O)C(C)(C)CCC1` [RA, trans-retinoic acid], the “reduction in growth (cell numbers)” value [2] was 35%.
In the case of `C=C(C)[C@@]12O[C@@]3(c4ccccc4)O[C@@H]1[C@@H]1[C@@H]4O[C@]4(CO)[C@@H](O)[C@]4(O)C(=O)C(C)=C[C@H]4[C@@]1(O3)[C@H](C)[C@H]2OC(=O)/C=C/C=C/c1ccccc1` [MEZ, mezerein], the “wild-type p53 protein level” value ([3]; 24 h) is reported as “no significant change” and the “wild-type p53 protein level” value ([3]; over 48, 72, 96 h) is reported as “decreases”.

Reference: patent publication US7507792B2, “MDA-7 proteins and methods of use thereof” (The Trustees of Columbia University In The City of New York, priority 1993, dated 2009)
